US9770469B2, “Methods of reprogramming renal cells” (Tel HaShomer Medical Research Infrastructure and Services …, priority 2009, dated 2017)

Assays:
[1] = system: human adult kidney cells; test: β-catenin immunofluorescence after VPA; assay type: cell-based; conditions: valproic acid 24 hours, vs non-treated cells
Protocol: (§1) Immunofluorescence Staining: AK, FK (treated and untreated) human epithelial cell line and fibroblast cell line were fixed with acetone at −20° C. for seven minutes and washed with PBS. Cells were blocked with 7% human serum in PBS for 15 minutes followed by incubation with β-catenin antibody (1:150) (Chemicon international) for 60 minutes. Cells were washed and then incubated with secondary antibody with Cy-3 conjugated anti-mouse IgG (1:200) (Jackson) for 30 minutes. For nuclear staining, cells were washed with PBS containing Hochest (Dako). The presence of β-catenin was examined under a Zeiss confocal fluorescence microscope.

[2] = system: human fetal kidney cells; test: β-catenin immunofluorescence after VPA; assay type: cell-based; conditions: valproic acid 24 hours, vs non-treated cells
Protocol: as §1

[3] = system: adult kidney cells; test: Methylation immunoprecipitation (MeDIP) of Six2 and Wt1 promoters; assay type: cell-based, human
Protocol: […] (MeDIP): 10 μg of sonicated genomic DNA (100-400 bp in length) was denatured, incubated 0/N at 4° C. with […] of anti-methyl cytosine antibody (Diagenode, Belgium), and subsequently with 60 μl of protein A fast flow beads (Upstate Biotechnologies) for 2 hours at 4° C. The beads were washed and incubated with digestion buffer (50 mM Tris-HCl pH 8.0, 10 mM EDTA, 0.5% SDS) and proteinase K for 3 hours and the DNA extracted by phenol-chloroform and EtOH precipitation. The samples were tested by quantitative RT PCR with the indicated primers at table 2. The sonicated DNA served as input.

[4] = system: human adult kidney cells; test: qRT-PCR gene expression after TSA/AzaC or VPA treatment; assay type: cell-based
From the text: (§2) Tissue Samples: human tissues samples were collected according to the Helsinki requirements. Human fetal kidney cells (HFK) were collected from elective abortions at fetal gestational age ranged from 15 to 19 weeks. Normal human adult kidney cell (HAK) samples were retrieved from borders of RCC tumors from partial nephrectomy patients. Establishment of Primary Cultures from Human Kidney Tissues: Collected tissues were minced in HBSS, soaked in IMDM Medium (Invitrogen) supplemented with 0.1% collagenase II (Invitrogen). The digested tissue was then gradually forced through a 100 μm, 70 μm and 50 μm cell strainer to achieve a single cell suspension, and cultured in growth medium supplemented with FBS 10%, L-Glutamin 1%, Pen-Strep 1% and growth factors: 50 ng/ml of bFGF, 50 ng/ml of EGF and 5 ng/ml of SCF (R&D systems). Cell Treatment: […] Otherwise, cells were treated for 24 hours with growth medium supplemented with the combination of 75 μM TSA (Sigma) and 250 μM 5-AZA (Sigma) or with 100% Ethanol and Acetic Acid (Acetic Acid: H2O 1:1) for control sample. […] 24 hours prior to harvesting VPA at a concentration of 4 mM was added to the cell culture. Quantitative Reverse Transcription-PCR: Total RNA from kidney tissue cultured cells was isolated using the TRIZOL reagent (Invitrogen) according to the manufacturer's protocols. cDNA synthesis was carried out using Verso kit (Thermo scientific) with Random primers. Quantitative RT PCR was performed using an ABI7900HT sequence detection system (Perkin-Elmer/Applied Biosystems) in the presence of SYBR green (SYBR green PCR kit; Qiagen). Each analysis reaction was performed in duplicates or triplicates. GapDH was used as an endogenous control throughout all experimental analyses. Analysis was performed using the −ΔΔCt method, which determines fold changes in gene expression relative to a comparator sample.

[5] = system: human fetal kidney cells; test: as above; assay type: cell-based
From the text: as §2

[6] = system: human adult kidney cells; test: Flow cytometry of renal progenitor surface markers after VPA; assay type: cell-based; conditions: 24 h 4 mM VPA, FACS
Protocol: (§3) Cell Treatment: Cells were treated for 24 hours with growth medium supplemented with 1, 2, or 4 mM VPA (Sigma) or with H2O for control sample. Otherwise, cells were treated for 24 hours with growth medium supplemented with the combination of 75 μM TSA (Sigma) and 250 μM 5-AZA (Sigma) or with 100% Ethanol and Acetic Acid (Acetic Acid: H2O 1:1) for control sample. […] 24 hours prior to harvesting VPA at a concentration of 4 mM was added to the cell culture.
(§4) Flow Cytometry: Cells were detached from culture plated with non-enzymatic cell dissociation solution (Sigma-Aldrich). Cells (1×10^5 in each reaction) were suspended in 50 μl of FACS buffer [0.5% BSA and 0.02% sodium azid in PBS (Sigma-Aldrich and Invitrogen, respectively)] and blocked with FcR Blocking Reagent (MiltenyiBiotec) and human serum (1:1) for 15 minutes. Cells were then incubated for 45 minutes with the following primary antibodies: CD24-PE, NCAM1-PE, (both from eBioscience), CD133-APC, PSA-NCAM (both from MiltenyiBiotec), FZD7-biotin, NTRK2 (both from R&D Systems) or a matching isotype control. Cells were washed with FACS buffer, and incubated for 30 minutes with a secondary antibody if needed: goat anti mouse Streptavidin-APC (BD) or goat anti mouse Alexa Fluor 647 (Invitrogen). Cell's labeling was detected using FACSCalibur (BD). Flow cytometry results were analyzed using FlowJo analysis software. Viable cells were gated by both their FSC/SSC profile and 7AAD (eBioscience) exclusion.

[7] = system: human fetal kidney cells; test: as above; assay type: cell-based; conditions: 24 h 4 mM VPA, FACS
Protocol: as §3, §4

[8] = system: Oct4 OE HAK cells; test: qRT-PCR of Oct4 over-expressing HAK cells with or without VPA; assay type: cell-based, human
[9] = HAK cells, 24 h, TSA/AzaC or VPA 1-4 mM, vs untreated control
[10] = HAK cells, 24 h, TSA/AzaC or all VPA concentrations (1, 2, 4 mM)
[11] = HFK cells, 24 h, TSA/AzaC or VPA
[12] = HFK cells, 24 h, TSA/AzaC or VPA (lesser extent than Six2)

CCCC(CCC)C(=O)O [VPA, valproic acid]
β-catenin immunofluorescence localisation [1]: cyoplasmic and nuclear accumulation
β-catenin immunofluorescence localisation [2]: cyoplasmic and nuclear accumulation
DNA methylation on Wt1 promoter ([3]; VPA treatment): minimally effected
DNA methylation at the Six2 promoter ([3]; with or without VPA): DNA hypomethylation at the Six2 promoter loci regardless of VPA treatment
Six2 mRNA reinduction ([4]; HAK cells, 24 h, TSA 75 μM + 5-AZA 250 μM, or VPA 1, 2, 4 mM (dose-dependent), vs untreated control): five-fold
Vimentin mRNA expression change ([4]; HAK cells, 24 h, TSA/AzaC or VPA): mostly unchanged
Osr1 mRNA expression change (re-activation) [4, 9]: upregulated in a dose-dependent manner
Pax2 mRNA expression change (re-activation) [4, 9]: mildly elevated
Sall1 mRNA expression change (re-activation) [4, 9]: upregulated in a dose-dependent manner
Wt1 mRNA expression change (re-activation) [4, 9]: reduced
Klf4 mRNA expression change [4, 10]: significantly up-regulated
Nanog mRNA expression change [4, 10]: significantly up-regulated
E-cadherin mRNA expression change ([4]; HAK cells, 24 h, TSA/AzaC, or VPA (effect at 2 mM, 4 mM)): mildly elevated
Oct4 mRNA expression change ([4]; HAK cells, 24 h treatment): remained unchanged
Wnt4 mRNA levels ([4]; VPA-treated adult kidney cells): strong up-regulation
β-catenin mRNA levels ([4]; VPA-treated adult kidney cells): elevation
Klf4 mRNA increase ([5]; HFK cells, 24 h, 4 mM VPA): two-five
Nanog mRNA increase ([5]; HFK cells, 24 h, 4 mM VPA): two-five
Oct4 mRNA increase ([5]; HFK cells, 24 h, 4 mM VPA): two-five
E-cadherin mRNA expression change [5, 11]: significantly elevated
Pax2 mRNA expression change [5, 11]: mild elevation
Wt1 mRNA expression change [5, 11]: reduction
Osr1 mRNA expression change [5, 12]: dose-dependent activation
Sall1 mRNA expression change [5, 12]: dose-dependent activation
Six2 mRNA induction ([5]; HFK cells, 24 h VPA, dose-dependent): four-fold
Wnt4 mRNA levels ([5]; VPA-treated fetal kidney cells): strong up-regulation
β-catenin mRNA levels ([5]; VPA-treated fetal kidney cells): elevation
PSA-NCAM surface expression elevation ([6]; especially in the adult kidney): 5-10 fold
CD133 surface expression ([6]; adult kidney cells): milder changes
NCAM surface expression levels ([6]; adult kidney cells): significant upregulation
CD133 surface expression [7]: milder changes
NCAM surface expression levels [7]: significant upregulation
PSA-NCAM surface expression levels [7]: significant upregulation
Six2 expression, VPA exposure combined with Oct4 OE [8]: higher Six2 expression pattern compared to each of the single manipulations
